# Read-outs that look alike come from different tables or passages of the source.
# Columns and labels:
# [1] = Corneal permeability in a diffusion chamber; assay type: in vitro ADME, rabbit
# From the text: The corneal permeability of pilocarpine hydrochloride and its most promising prodrug derivatives as evaluated from the tests described above were studied in a diffusion chamber, wherein the migration of the compound from the delivering phase (epithelium side) thorugh the cornea to the acceptor side (endothelium side) of the diffusion chamber. In the study, rabbit eye cornea was used. From the samples taken from the acceptor side of the diffusion chamber, both the concentration of the prodrug and the liberated drug were determined in the acceptor phase with HPLC. Thus the rate of degradation of the prodrug in the cornea was determined. The permeability coefficients (Papp, cm/s) calculated from the permeability rate (μmol/min), their […] deviations (RSD) and the number of tests, are given in the Table II below.
# [2] = Enzyme hydrolysis in plasma/buffer pH 7.4 mixture (80%-20%); assay type: in vitro ADME; details: for half-life: 80% plasma/buffer
# Method: The half-times of enzyme hydrolysis of the novel bispilocarpates according to the invention and of known pilocarpic acid diesters were determined in a plasma/buffer pH 7.4-mixture (80%-20%) at 37°C. The degradation constants (k) for the compounds tested and determined from the plot showing the logarithm of remaining diester as a function of time and the half-lives T½ are shown in the Table II below. From the results it may be seen that in […] the stable test compound degrades under the influence of an enzyme (esterase) to a O,O'-dihydrogen bispilocarpate intermediate, which spontaneously degrades at pH 7.40 to pilocarpine. Consequently the effect of the bispilocarpate intermediate on the rate of formation of pilocarpine is very significant. The formation of pilocarpine was almost complete irrespective of the epimerization possibility of the intermediate. The amount of isopilocarpine formed varied from 0 to 10%, as also the pilocarpine formed epimerized, if the duration of hydrolysis was very long.
# [3] = Stability of the compounds: buffer hydrolysis (half-times, shelf-life); assay type: physicochemical
# Method: The stability of the test compounds were tested with buffer hydrolyses. The ionic strength (µ) of the buffers was 0.5, the pH-values used 4.2, 6.0, 7.4 and 9.0 and the temperatures used 37°C, 50 °C, 60 °C and 70 °C.
# The half-times T½ calculated on basis of the degradation constant k obtained for each studied compound (T½=0.693/k; k = 2.303 x kk, wherein kk is the angular coefficient of the plot which illustrates the logarithm of the remaining ester as a function of time) in a buffer solution of said pH, are indicated in the Table I below, which values refer to half-times at 37°C.
# The storage stability of the derivatives under different storage conditions may be estimated by determining the degradation constants at different temperatures and calculating the degradation constant k at the desired temperature from the equation of the plot corresponding to the Arrhenius equation (1), wherein log k is given as a function of [1/T]. Log k = Log A -(Ea)/(2.303R)x(1)/(T) [formula]
# From the degradation constant (k) obtained at the desired temperature the shelf-life-time t10% (t10% = 0.104/k) which indicates the time during which 10% of the drug has degraded may be calculated. By way of example it may be mentioned that the t10%-time of O,O'-dipropionyl (1,4-xylylene) bispilocarpate at 4 °C is almost 500 days.
# [4] = pKa-value determination by titration in a water-ethanol mixture (50%-50%); assay type: physicochemical; details: water-ethanol 50:50; titration in water-ethanol mixture (50%-50%)
# [5] = Lipophilicity: partition coefficient (octanol-buffer) and capacity factor by RP-HPLC; assay type: physicochemical; details: for chromatographic logP: reverse phase HPLC, 22°C, read-out: Capacity factor (22°C) k' (converted)
# From the text: The lipophilicity of the compounds were studied by determining the partition coefficients (P) of the compounds at a pH of 7.40. The measurements were made either in an octanol-buffer mixture by determining the concentration of the compound to be studied in the buffer phase by HPLC. The partition coefficients of the very lipophilic compounds were, however, determined by reverse phase (RP) liquid chromatography (HPLC) from the retention time (Beckmann 116 pump and 166 UV detector; Marathon autom. sample feeder). […] From the results it can be seen that the compounds of the invention are considerably more lipophilic than the pilocarpine.
# [6] = as above; assay type: physicochemical; details: pH 5.0
# [7] = administered locally as eyedrops; cited from earlier work
# [8] = rabbit eye cornea, diffusion chamber, epithelium side to endothelium side, read-out: Permeability coefficient Papp
# [9] = plasma/buffer pH 7.4 (80%-20%), 37°C, read-out: half-times (T½) in plasma (80%), 37°C
# [10] = plasma/buffer pH 7.4 (80%-20%), 37°C
# [11] = buffer pH 6.00, ionic strength 0.5, 37°C, read-out: Half-times in buffers at 37°C, T½, pH 6.00 (converted)
# [12] = buffer pH 9.00, ionic strength 0.5, 37°C, read-out: Half-times in buffers at 37°C, T½, pH 9.00 (converted)
# [13] = pH 4.2, buffer pH 4.20, ionic strength 0.5, 37°C, read-out: Half-times in buffers at 37°C, T½, pH 4.20 (converted)
# [14] = pH 7.4, buffer pH 7.40, ionic strength 0.5, 37°C, read-out: Half-times in buffers at 37°C, T½, pH 7.40 (converted)
# [15] = determined from the equation log k'= 0.182 Log P - 0.4086 (RP-HPLC retention)
# [16] = buffer, pH 4.2, 50 °C, pH 4.20, read-out: Chemical hydrolysis t½, pH 4.20 (converted)
# [17] = buffer, pH 7.4, 50 °C, pH 7.40, read-out: Chemical hydrolysis t½, pH 7.40 (converted)
# [18] = buffer, 50 °C, pH 6.00, read-out: Chemical hydrolysis t½, pH 6.00 (converted)
Structure (SMILES),pKa [4],chromatographic logP ([5]; rp-hplc),"Papp [1, 8]","half-life [2, 9]","Degradation coefficient (k) in plasma (80%), 37°C [2, 10]","half-life [3, 11]","half-life [3, 12]","half-life [3, 13]","half-life [3, 14]",further results
"CC[C@H](C(=O)OCc1ccc(COC(=O)[C@@H](CC)[C@H](COC(C)=O)Cc2cncn2C)cc1)[C@H](COC(C)=O)Cc1cncn1C [Example 9, O,O'-Diacetyl (1,4-xylylene) bispilocarpate]",6.03,0.146,,,,,,,,"Papp ([1]; rabbit): 9.3 ×10⁻⁶ cm/s; half-life ([2]; pH 7.4): 9 min; Degradation coefficient (k) in plasma (80%), 37°C ([2]; pH 7.4): 0.0737 min⁻¹; half-life ([3]; buffer, pH 4.2): 165 days; half-life ([3]; buffer, pH 6): 48.4 days; half-life ([3]; buffer, pH 7.4): 11.4 days; half-life ([3]; buffer, pH 9): 1.42 days; Partition coefficient log P ([5]; pH 7.4): 3.0432^1; Capacity factor (22°C) k' ([5]; rp-hplc): 1.3987"
"CCC(=O)OC[C@H](Cc1cncn1C)[C@H](CC)C(=O)OCc1ccc(COC(=O)[C@@H](CC)[C@H](COC(=O)CC)Cc2cncn2C)cc1 [Example 10, O,O'-Dipropionyl (1,4-xylylene) bispilocarpate]",5.8,0.362,30.5 ×10⁻⁶ cm/s,6 min,0.1184 min⁻¹,50.6 days,1.96 days,91.8 days,16.7 days,"shelf-life-time t10% (time during which 10% of the drug has degraded) ([3]; at 4 °C, calculated from the Arrhenius plot): ~500 days"
"CCCC(=O)OC[C@H](Cc1cncn1C)[C@H](CC)C(=O)OCc1ccc(COC(=O)[C@@H](CC)[C@H](COC(=O)CCC)Cc2cncn2C)cc1 [Example 11, O,O'-Dibutyryl (1,4-xylylene) bispilocarpate]",6,0.603,21.5 ×10⁻⁶ cm/s,11 min,0.06149 min⁻¹,46.4 days,5.71 days,250 days,7.38 days,"Partition coefficient log P [5, 15]: 5.5604^2"
"CCCCC(=O)OC[C@H](Cc1cncn1C)[C@H](CC)C(=O)OCc1ccc(COC(=O)[C@@H](CC)[C@H](COC(=O)CCCC)Cc2cncn2C)cc1 [Example 12, O,O'-Divaleryl (1,4-xylylene) bispilocarpate]",6,0.868,18.2 ×10⁻⁶ cm/s,12 min,0.05734 min⁻¹,,0.292 days,,,"Partition coefficient log P [5, 15]: 7.0165^2"
"CC[C@H](C(=O)OCc1ccc(COC(=O)[C@@H](CC)[C@H](COC(=O)C2CC2)Cc2cncn2C)cc1)[C@H](COC(=O)C1CC1)Cc1cncn1C [Example 13, O,O'-Dicyclopronylcarbonyl (1,4-xylylene) bispilocarpate]",6,0.392,15.8 ×10⁻⁶ cm/s,14 min,0.04998 min⁻¹,352 days,14.1 days,2640 days,148 days,"Partition coefficient log P ([5]; determined with an octanol-buffer-mixture, pH 7.40, 22 °C): 4.2015^1"
"CC[C@H](C(=O)OCCCCCCOC(=O)[C@@H](CC)[C@H](COC(=O)C1CC1)Cc1cncn1C)[C@H](COC(=O)C1CC1)Cc1cncn1C [Example 20, O,O'-Dicyclopropylcarbonyl (1,6-hexylene) bispilocarpate]",6,,,15 min,,,,,,"half-life [3, 16]: 134 days; half-life [3, 17]: 27.7 days; half-life [3, 18]: 142 days; logD [6]: 0.88"
"CC[C@H](C(=O)OCCCCCOC(=O)[C@@H](CC)[C@H](COC(=O)C1CC1)Cc1cncn1C)[C@H](COC(=O)C1CC1)Cc1cncn1C [Example 21, O,O'-Dicyclopropylcarbonyl (1,5-pentylene) bispilocarpate]",,,,13 min,,,,,,"half-life [3, 16]: 193 days; half-life [3, 17]: 23 days; half-life [3, 18]: 98.7 days; logD [6]: 0.401"
"CC[C@@H]1C(=O)OC[C@@H]1Cc1cncn1C [Pilocarpine, (3S-cis)-3-ethyl-dihydro-4-[(1-methyl-1H-imidazol-5-yl)methyl]-2(3H)-furanone]",,-0.392,4.1 ×10⁻⁶ cm/s,,,,,,,pilocarpine dose absorbed by the eye [7]: about 1%; pilocarpine dose absorbed in the blood stream [7]: about 70%
"CC[C@H](C(=O)OCc1ccccc1)[C@H](COC(C)=O)Cc1cncn1C [acetyl, benzyl, reference compound]",,,11.7 ×10⁻⁶ cm/s,16 min,0.04353 min⁻¹,144 days,3.29 days,320 days,22.8 days,
"CC[C@H](C(=O)OCc1ccccc1)[C@H](COC(=O)c1ccccc1)Cc1cncn1C [benzoyl, benzyl, reference compound]",,,8.7 ×10⁻⁶ cm/s,18 min,0.038 min⁻¹,203 days,4.62 days,444 days,85.1 days,
"CCC(=O)OC[C@H](Cc1cncn1C)[C@H](CC)C(=O)OCc1ccccc1 [propionyl, benzyl, reference compound]",,,14.3 ×10⁻⁶ cm/s,6 min,0.108 min⁻¹,222 days,3.92 days,90.8 days,31.2 days,
"CCCCC(=O)OC[C@H](Cc1cncn1C)[C@H](CC)C(=O)OCc1ccccc1 [valeryl, benzyl, reference compound]",,,11.5 ×10⁻⁶ cm/s,9 min,0.07876 min⁻¹,,12.6 days,356 days,48.7 days,

# From patent publication EP0559700B1, “NOVEL PILOCARPINE DERIVATIVES AND PROCESS FOR THEIR PREPARATION” (Santen Oy, priority 1990, dated 1992)
